The results in this text go back to the supplement of paper PMC11061612.

One experiment has as its system GAK (Melanoma). Nature of the experiment: combination Emax (second highest fraction inhibited in the dose matrix, 72 h); higher = more inhibition; extreme values may be limits of the assay. A digest of the protocol:
(§1)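 Bliss excess equals the observed combination effect minus the expected value EA + EB − EA·EB, where EA and EB are the effects of each agent alone. Combination Emax is the second-highest inhibition within the matrix. Inhibition was scaled from CellTiter-Glo 2.0 luminescence, with 0 set by vehicle wells and 1 by blank wells, after 72 hours of two-drug dosing of cells plated in 1536-well plates.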

The test system of experiment [1] is SKG-IIIa (Cervical Carcinoma). The description is as above. A digest of the protocol: as §1
The next experiment deals with NCI-H226 (Mesothelioma). Described as above. A digest of the protocol: as §1
The subject of experiment [2] is SCC-4 (Oral Cavity Carcinoma). The description is as above. A digest of the protocol:
as §1

For experiment [3], the system named is NAMALWA (Burkitt's Lymphoma). Described as above. A digest of the protocol:
as §1

Experiment [4] deals with LS-1034 (Colorectal Carcinoma). The experiment is described as above. The procedure, abridged:
as §1

The test system of experiment [5] is LCLC-103H (Non-Small Cell Lung Carcinoma). Described as above. A digest of the protocol: as §1
Experiment [6] deals with RCC-JW (Kidney Carcinoma). The experiment is described as above. The procedure, abridged: as §1
The test system of a further experiment is ES6 (Ewing's Sarcoma). Described as above. A digest of the protocol:
as §1

For experiment [7], the system named is SK-CO-1 (Colorectal Carcinoma). The experiment is described as above. The procedure, abridged: as §1
The test system of experiment [8] is C-33-A (Cervical Carcinoma). The description is as above. A digest of the protocol: as §1
Experiment [9] concerns MONO-MAC-6 (Acute Myeloid Leukemia). Described as above. A digest of the protocol:
as §1

Experiment [10] has as its system MDA-MB-415 (Breast Carcinoma). The description is as above. The procedure, abridged:
as §1

The test system of the next experiment is IST-MEL1 (Melanoma). The description is as above. The procedure, abridged:
as §1

In experiment [11] the test system is HPAF-II (Pancreatic Carcinoma). The experiment in a line: Bliss excess, mean over the matrix (fraction); higher = more synergy. A digest of the protocol:
as §1

For experiment [12], the system named is LCLC-103H (Non-Small Cell Lung Carcinoma). Described as above. A digest of the protocol: as §1
For experiment [13], the system named is SK-CO-1 (Colorectal Carcinoma). Described as above. The procedure, abridged: as §1
The subject of experiment [14] is CPC-N (Small Cell Lung Carcinoma). The description is as above. The procedure, abridged:
as §1

Experiment [15] relates to COR-L88 (Small Cell Lung Carcinoma). The experiment is described as above. A digest of the protocol: as §1
Experiment [16] concerns MONO-MAC-6 (Acute Myeloid Leukemia). The description is as above. The procedure, abridged: as §1

For the compound `Cc1nc(-c2cn3c(n2)-c2ccc(-c4cnn(C(C)(C)C(N)=O)c4)cc2OCC3)n(C(C)C)n1` [Taselisib] + O=C(Nc1ccc2[nH]nc(-c3ccncc3)c2c1)[C@@H]1CCN(CC(=O)N2CCN(c3ccc(-c4ncccn4)cc3)CC2)C1 [SCH772984] (first compound max 10 µM, 7x7, partner max 5 µM), the “combination Emax” value amounted to 0.944 in the experiment with GAK (Melanoma); 0.633 in [1]; 0.393 with NCI-H226 (Mesothelioma); 0.911 in experiment [2]; 0.65 in experiment [3]; 0.72 in [4]. For the same compound, the “combination Emax” value in [5] was found to be 0.472; in [6], 0.638; in the experiment on ES6 (Ewing's Sarcoma) it was 0.639; in experiment [7], 0.975; in experiment [8] it was 0.661; in experiment [9], 0.964. The entries for the “combination Emax” value (in experiment [10]; with IST-MEL1 (Melanoma)) were 0.846 and 0.885, respectively. The Bliss excess in [11] is 0.224; in experiment [12] it was 0.0056; in experiment [13], 0.0763; in experiment [14], 0.0196; in [15] it was 0.004; in experiment [16], 0.0832.

`CC1(C)CCC(CN2CCN(c3ccc(C(=O)NS(=O)(=O)c4ccc(NCC5CCOCC5)c([N+](=O)[O-])c4)c(Oc4cnc5[nH]ccc5c4)c3)CC2)=C(c2ccc(Cl)cc2)C1` [Venetoclax] + CS(=O)(=O)CCNCc1ccc(-c2ccc3ncnc(Nc4ccc(OCc5cccc(F)c5)c(Cl)c4)c3c2)o1 [Lapatinib] (first compound max 1 µM, 7x7, partner max 10 µM): the “combination Emax” value in the experiment with GAK (Melanoma) is 0.229; in experiment [1], 0.201; with NCI-H226 (Mesothelioma), 0.113; in experiment [2], 0.368; in experiment [3], 0.25; in experiment [4], 0.322. In addition, the “combination Emax” value in [5] came to 0.208; in [6], 0.967; in the experiment on ES6 (Ewing's Sarcoma) it was 0.585; in [7], 0.345; in [8] it was 0.444; in experiment [9], 0.353. Also, the “combination Emax” value in experiment [10] was 0.242; in the experiment with IST-MEL1 (Melanoma) it was 0.293. The Bliss excess in experiment [11] is -0.0355; in experiment [12], -0.0319; in [13], 0.0109; in experiment [14], -0.019; in experiment [15] it was -0.0146; in experiment [16], -0.0371.
